From ChEMBL document CHEMBL1201862, “PubChem BioAssay data set” (2004)
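Where inhibition never reached the appropriate level, the endpoint shown equals the highest concentration tested. Otherwise, values were interpolated linearly from a five-concentration, 48-hour dose response in 96-well plates. GI50 marks 50% less growth.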 Calls of active or inactive are those of the source. Cut-off read from the data, not from the text of the source: active = GI50 up to about 1.1 µM and inactive = higher.

Assays:
Experiment in all cases: NCI tumour cell line growth inhibition, 48 h
786-0 = system: 786-0
SK-OV-3 = system: SK-OV-3
SN12C = system: SN12C
NCI-H460 = system: NCI-H460
OVCAR-8 = system: OVCAR-8
MCF7 = system: MCF7
LOX IMVI = system: LOX IMVI
SF-295 = system: SF-295
T47D = system: T47D
UACC-257 = system: UACC-257
HT-29 = system: HT-29
UO-31 = system: UO-31
SF-539 = system: SF-539
MDA-N = system: MDA-N
SF-268 = system: SF-268
PC-3 = system: PC-3
BT-549 = system: BT-549
MDA-MB-435 = system: MDA-MB-435
HCT-116 = system: HCT-116
NCI/ADR-RES = system: NCI/ADR-RES
HCC 2998 = system: HCC 2998
TK-10 = system: TK-10
CAKI-1 = system: CAKI-1
SNB-75 = system: SNB-75
SNB-19 = system: SNB-19
SK-MEL-5 = system: SK-MEL-5
Malme-3M = system: Malme-3M
K562 = system: K562
HCT-15 = system: HCT-15
MOLT-4 = system: MOLT-4
OVCAR-3 = system: OVCAR-3
SK-MEL-28 = system: SK-MEL-28
U-251 = system: U-251
M14 = system: M14
CCRF-CEM = system: CCRF-CEM
SW-620 = system: SW-620
Hs-578T = system: Hs-578T
A549 = system: A549
RPMI-8226 = system: RPMI-8226
A498 = system: A498
HOP-92 = system: HOP-92
NCI-H23 = system: NCI-H23
NCI-H522 = system: NCI-H522
SR = system: SR
SK-MEL-2 = system: SK-MEL-2
OVCAR-5 = system: OVCAR-5
IGROV-1 = system: IGROV-1
HL-60 = system: HL-60
ACHN = system: ACHN
HOP-62 = system: HOP-62
UACC-62 = system: UACC-62
MDA-MB-231 = system: MDA-MB-231
KM12 = system: KM12
DU-145 = system: DU-145
EKVX = system: EKVX
COLO 205 = system: COLO 205
NCI-H226 = system: NCI-H226
OVCAR-4 = system: OVCAR-4

Cc1ccc(S(=O)(=O)N/N=C2/CC3CCC4CC2CC34)cc1 (configuration not stated)
GI50 (786-0): > 100 µM (inactive) | GI50 (SK-OV-3): > 100 µM (inactive) | GI50 (SN12C): > 100 µM (inactive) | GI50 (NCI-H460): > 100 µM (inactive) | GI50 (OVCAR-8): > 100 µM (inactive) | GI50 (MCF7): > 100 µM (inactive) | GI50 (LOX IMVI): > 100 µM (inactive) | GI50 (SF-295): > 100 µM (inactive) | GI50 (T47D): 81.1 µM (inactive) | GI50 (UACC-257): > 100 µM (inactive) | GI50 (HT-29): > 100 µM (inactive) | GI50 (UO-31): 25.4 µM (inactive) | GI50 (SF-539): > 100 µM (inactive) | GI50 (MDA-N): > 100 µM (inactive) | GI50 (SF-268): > 100 µM (inactive) | GI50 (PC-3): > 100 µM (inactive) | GI50 (BT-549): > 100 µM (inactive) | GI50 (MDA-MB-435): > 100 µM (inactive) | GI50 (HCT-116): > 100 µM (inactive) | GI50 (NCI/ADR-RES): > 100 µM (inactive) | GI50 (HCC 2998): > 100 µM (inactive) | GI50 (TK-10): > 100 µM (inactive) | GI50 (CAKI-1): > 100 µM (inactive) | GI50 (SNB-75): > 100 µM (inactive) | GI50 (SNB-19): > 100 µM (inactive) | GI50 (SK-MEL-5): 84.7 µM (inactive) | GI50 (Malme-3M): > 100 µM (inactive) | GI50 (K562): 93.5 µM (inactive) | GI50 (HCT-15): > 100 µM | GI50 (MOLT-4): > 100 µM (inactive) | GI50 (OVCAR-3): > 100 µM (inactive) | GI50 (SK-MEL-28): > 100 µM (inactive) | GI50 (U-251): > 100 µM (inactive) | GI50 (M14): > 100 µM (inactive) | GI50 (CCRF-CEM): > 100 µM (inactive) | GI50 (SW-620): > 100 µM (inactive) | GI50 (Hs-578T): 88.3 µM (inactive) | GI50 (A549): > 100 µM (inactive) | GI50 (RPMI-8226): > 100 µM (inactive) | GI50 (A498): > 100 µM (inactive) | GI50 (HOP-92): > 100 µM (inactive) | GI50 (NCI-H23): > 100 µM (inactive) | GI50 (NCI-H522): > 100 µM (inactive) | GI50 (SR): > 100 µM (inactive) | GI50 (SK-MEL-2): > 100 µM (inactive) | GI50 (OVCAR-5): > 100 µM (inactive) | GI50 (IGROV-1): > 100 µM (inactive) | GI50 (HL-60): > 100 µM (inactive) | GI50 (ACHN): > 100 µM (inactive) | GI50 (HOP-62): > 100 µM (inactive) | GI50 (UACC-62): > 100 µM (inactive) | GI50 (MDA-MB-231): > 100 µM (inactive) | GI50 (KM12): > 100 µM (inactive) | GI50 (DU-145): > 100 µM (inactive) | GI50 (EKVX): 61.5 µM (inactive) | GI50 (COLO 205): 55 µM (inactive) | GI50 (NCI-H226): > 100 µM (inactive)

COc1cccc(CCCNC(=O)Cc2ccccc2CO)c1
GI50 (786-0): > 100 µM (inactive) | GI50 (SK-OV-3): > 100 µM (inactive) | GI50 (SN12C): > 100 µM (inactive) | GI50 (NCI-H460): > 100 µM (inactive) | GI50 (OVCAR-8): > 100 µM (inactive) | GI50 (MCF7): > 100 µM (inactive) | GI50 (LOX IMVI): > 100 µM (inactive) | GI50 (SF-295): > 100 µM (inactive) | GI50 (T47D): 38.1 µM (inactive) | GI50 (UACC-257): > 100 µM (inactive) | GI50 (HT-29): > 100 µM (inactive) | GI50 (UO-31): > 100 µM (inactive) | GI50 (SF-539): > 100 µM (inactive) | GI50 (MDA-N): > 100 µM (inactive) | GI50 (PC-3): > 100 µM (inactive) | GI50 (BT-549): > 100 µM (inactive) | GI50 (MDA-MB-435): > 100 µM (inactive) | GI50 (HCT-116): > 100 µM (inactive) | GI50 (NCI/ADR-RES): > 100 µM (inactive) | GI50 (HCC 2998): > 100 µM (inactive) | GI50 (OVCAR-4): > 100 µM (inactive) | GI50 (TK-10): > 100 µM (inactive) | GI50 (CAKI-1): > 100 µM (inactive) | GI50 (SNB-75): > 100 µM (inactive) | GI50 (SNB-19): > 100 µM (inactive) | GI50 (SK-MEL-5): > 100 µM (inactive) | GI50 (Malme-3M): > 100 µM (inactive) | GI50 (K562): > 100 µM (inactive) | GI50 (HCT-15): > 100 µM | GI50 (MOLT-4): > 100 µM (inactive) | GI50 (OVCAR-3): > 100 µM (inactive) | GI50 (SK-MEL-28): > 100 µM (inactive) | GI50 (U-251): > 100 µM (inactive) | GI50 (M14): > 100 µM (inactive) | GI50 (CCRF-CEM): > 100 µM (inactive) | GI50 (SW-620): > 100 µM (inactive) | GI50 (Hs-578T): > 100 µM (inactive) | GI50 (A549): > 100 µM (inactive) | GI50 (A498): > 100 µM (inactive) | GI50 (HOP-92): > 100 µM (inactive) | GI50 (NCI-H23): > 100 µM (inactive) | GI50 (SR): > 100 µM (inactive) | GI50 (SK-MEL-2): > 100 µM (inactive) | GI50 (OVCAR-5): > 100 µM (inactive) | GI50 (IGROV-1): > 100 µM (inactive) | GI50 (HL-60): > 100 µM (inactive) | GI50 (ACHN): > 100 µM (inactive) | GI50 (HOP-62): > 100 µM (inactive) | GI50 (UACC-62): > 100 µM (inactive) | GI50 (MDA-MB-231): > 100 µM (inactive) | GI50 (KM12): > 100 µM (inactive) | GI50 (DU-145): > 100 µM (inactive) | GI50 (EKVX): > 100 µM (inactive) | GI50 (COLO 205): > 100 µM (inactive) | GI50 (NCI-H226): > 100 µM (inactive)
